According to patent US8802700B2 (Vertex Pharmaceuticals Incorporated, priority 2010, dated 2014):

target: T1, ΔF508-CFTR (Homo sapiens, UniProt P13569, DEL508-508); experiment: Membrane potential optical assay (FRET voltage-sensor dyes, VIPR), identification of potentiator compounds; assay type: cell-based; conditions: Table 3; assay not given
T1 construct: expressed in transfected cells
Excerpt: The optical membrane potential assay utilized voltage-sensitive FRET sensors described by Gonzalez and Tsien (See Gonzalez, J. E. and R. Y. Tsien (1995) “Voltage sensing by fluorescence resonance energy transfer in single cells” Biophys J 69(4): 1272-80, and Gonzalez, J. E. and R. Y. Tsien (1997) “Improved indicators of cell membrane potential that use fluorescence resonance energy transfer” Chem Biol 4(4): 269-77) in combination with instrumentation for measuring fluorescence changes such as the Voltage/Ion Probe Reader (VIPR) (See […]. Oades, et al. (1999) “Cell-based assays and instrumentation for screening ion-channel targets” Drug Discov Today 4(9): 431-439). These voltage sensitive assays are based on the change in fluorescence resonant energy transfer (FRET) between the membrane-soluble, voltage-sensitive dye, DiSBAC2(3), and a fluorescent phospholipid, CC2-DMPE, which is attached to the outer leaflet of the plasma membrane and acts as a FRET donor. Changes in membrane potential (Vm) cause the negatively charged DiSBAC2(3) to redistribute across the plasma membrane and the amount of energy transfer from CC2-DMPE changes accordingly. The changes in fluorescence emission were monitored using VIPRTM II, which is an integrated liquid handler and fluorescent detector designed to conduct cell-based screens in 96- or 384-well microtiter plates. To identify potentiators of ΔF508-CFTR, a double-addition HTS assay format was developed. During the first addition, a Cl^--free medium with or without test compound was added to each well. […] (in mM) NaCl 160, KCl 4.5, CaCl2 2, MgCl2 1, HEPES 10, pH 7.4 with NaOH. • Chloride-free bath solution: Chloride salts in Bath Solution #1 are substituted with gluconate salts. • CC2-DMPE: Prepared as a 10 mM stock solution in DMSO and stored at -20° C. • DiSBAC2(3): Prepared as a 10 mM stock in DMSO and stored at -20° C. NIH3T3 mouse fibroblasts stably expressing ΔF508-CFTR are used for optical measurements of membrane potential. […] For all optical assays, the cells were seeded at 30,000/well in 384-well matrigel-coated plates and cultured for 2 hrs at 37° C. before culturing at 27° C. for 24 hrs. for the potentiator assay.

T1 sequence (P13569 with tags, fused parts or gaps DEL508-508): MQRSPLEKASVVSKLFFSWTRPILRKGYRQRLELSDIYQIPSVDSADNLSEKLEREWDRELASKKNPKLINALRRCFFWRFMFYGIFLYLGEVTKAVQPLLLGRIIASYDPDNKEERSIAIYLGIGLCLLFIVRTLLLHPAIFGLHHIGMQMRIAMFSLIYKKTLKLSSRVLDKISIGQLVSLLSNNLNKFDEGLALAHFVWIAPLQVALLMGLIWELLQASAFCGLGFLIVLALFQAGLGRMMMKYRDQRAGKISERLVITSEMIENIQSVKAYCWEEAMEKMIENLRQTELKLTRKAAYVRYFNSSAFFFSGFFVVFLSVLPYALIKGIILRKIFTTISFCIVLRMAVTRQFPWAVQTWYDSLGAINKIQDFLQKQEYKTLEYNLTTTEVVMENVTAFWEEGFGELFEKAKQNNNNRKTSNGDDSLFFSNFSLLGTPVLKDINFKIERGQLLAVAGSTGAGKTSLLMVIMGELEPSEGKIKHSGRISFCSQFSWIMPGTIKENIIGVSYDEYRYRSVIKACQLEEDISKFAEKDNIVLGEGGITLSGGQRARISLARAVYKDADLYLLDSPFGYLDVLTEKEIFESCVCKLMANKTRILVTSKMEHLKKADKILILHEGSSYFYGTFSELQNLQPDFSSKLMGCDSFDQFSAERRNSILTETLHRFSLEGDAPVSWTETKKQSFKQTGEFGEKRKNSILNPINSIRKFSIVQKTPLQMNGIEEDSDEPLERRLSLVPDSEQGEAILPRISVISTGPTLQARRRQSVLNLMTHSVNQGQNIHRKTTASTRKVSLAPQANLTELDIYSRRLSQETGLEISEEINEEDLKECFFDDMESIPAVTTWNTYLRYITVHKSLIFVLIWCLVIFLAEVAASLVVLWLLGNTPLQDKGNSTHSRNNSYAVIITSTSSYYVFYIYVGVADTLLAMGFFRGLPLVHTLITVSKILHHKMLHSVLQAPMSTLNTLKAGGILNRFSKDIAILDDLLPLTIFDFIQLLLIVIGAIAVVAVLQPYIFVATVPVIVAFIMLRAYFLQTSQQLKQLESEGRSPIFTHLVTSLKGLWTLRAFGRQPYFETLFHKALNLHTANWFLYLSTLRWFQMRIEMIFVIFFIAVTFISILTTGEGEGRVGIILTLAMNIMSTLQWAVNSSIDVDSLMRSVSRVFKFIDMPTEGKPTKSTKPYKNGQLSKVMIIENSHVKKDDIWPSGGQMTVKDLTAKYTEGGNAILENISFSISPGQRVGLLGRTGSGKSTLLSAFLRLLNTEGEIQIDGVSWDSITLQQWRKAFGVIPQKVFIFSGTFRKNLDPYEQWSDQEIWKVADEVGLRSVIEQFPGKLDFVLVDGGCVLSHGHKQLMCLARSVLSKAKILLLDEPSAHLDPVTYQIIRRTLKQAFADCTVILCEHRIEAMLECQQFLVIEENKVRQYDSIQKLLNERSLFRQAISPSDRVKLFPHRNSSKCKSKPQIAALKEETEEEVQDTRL

EC50 [µM] | SMILES
10 to 25 | CC(=O)N1CCCC(C)(C)c2ccc(NC(=O)c3c[nH]c4ccccc4c3=O)cc21 [Compound 109, N-(1-acetyl-2,3,4,5-tetrahydro-5,5-dimethyl-1H-benzo[b]azepin-8-yl)-1,4-dihydro-4-oxoquinoline-3-carboxamide]
< 10 | CCOc1ccccc1-c1ccccc1NC(=O)c1c[nH]c2ccccc2c1=O [Compound 344, N-[2-(2-ethoxyphenyl)phenyl]-4-oxo-1H-quinoline-3-carboxamide]

same assay, conditions: Table 3; assay not given; read-out: % Activity (% Efficacy, relative efficacy)

Emax [%] | SMILES
25 to 100 | CC(C)(C)c1c[nH]c2cc(NC(=O)c3c[nH]c4ccccc4c3=O)ccc12 [Compound 478, 4-oxo-N-(3-tert-butyl-1H-indol-6-yl)-1H-quinoline-3-carboxamide]
25 to 100 | Cc1ccc2[nH]cc(C(=O)Nc3ccc(N4CCCC4C)cc3C(F)(F)F)c(=O)c2c1 (centres unmarked) [Compound 503, 6-methyl-N-[4-(2-methylpyrrolidin-1-yl)-2-(trifluoromethyl)phenyl]-4-oxo-1H-quinoline-3-carboxamide]
25 to 100 | O=C(Nc1ccc(N2CCC2)cc1C(F)(F)F)c1c[nH]c2ccccc2c1=O [Compound 689, N-[4-azetidin-1-yl-2-(trifluoromethyl)phenyl]-4-oxo-1H-quinoline-3-carboxamide]
25 to 100 | O=C(Nc1cc(O)c(Cl)cc1F)c1c[nH]c2ccccc2c1=O [Compound 695, N-(4-chloro-2-fluoro-5-hydroxy-phenyl)-4-oxo-1H-quinoline-3-carboxamide]
> 100 | O=C(Nc1ccc(N2CCOCC2)cc1C(F)(F)F)c1c[nH]c2ccccc2c1=O [Compound 598, N-[4-morpholino-2-(trifluoromethyl)phenyl]-4-oxo-1H-quinoline-3-carboxamide]
25 to 100 | O=C(Nc1ccc(N2CCN(CCO)CC2)cc1C(F)(F)F)c1c[nH]c2ccccc2c1=O [Compound 673, N-[4-[4-(2-hydroxyethyl)piperazin-1-yl]-2-(trifluoromethyl)phenyl]-4-oxo-1H-quinoline-3-carboxamide]
> 100 | Cc1cccc2[nH]cc(C(=O)Nc3ccc(OC(C)C)cc3C(F)(F)F)c(=O)c12 [Compound 547, N-[4-isopropoxy-2-(trifluoromethyl)phenyl]-5-methyl-4-oxo-1H-quinoline-3-carboxamide]
25 to 100 | CC(C)(C)OC(=O)Nc1ccc(NC(=O)c2c[nH]c3ccccc3c2=O)c(C(F)(F)F)c1 [Compound 600, tert-butyl [[4-[(4-oxo-1H-quinolin-3-yl)carbonylamino]-3-(trifluoromethyl)phenyl]amino]formate]
25 to 100 | O=C(Nc1cc(O)cc(C(F)(F)F)c1)c1c[nH]c2ccc(F)cc2c1=O [Compound 574, 6-fluoro-N-[3-hydroxy-5-(trifluoromethyl)phenyl]-4-oxo-1H-quinoline-3-carboxamide]
25 to 100 | Cc1ccc2c(=O)c(C(=O)Nc3cc4[nH]ccc4cc3C(C)(C)C)c[nH]c2c1 [Compound 704, 7-methyl-4-oxo-N-(5-tert-butyl-1H-indol-6-yl)-1H-quinoline-3-carboxamide]
25 to 100 | O=C(Nc1ccc2cc(C(F)(F)F)[nH]c2c1)c1c[nH]c2ccc(F)cc2c1=O [Compound 495, 6-fluoro-4-oxo-N-[2-(trifluoromethyl)-1H-indol-6-yl]-1H-quinoline-3-carboxamide]
25 to 100 | COc1ccc(NC(=O)c2c[nH]c3ccccc3c2=O)cc1N [Compound 378, N-(3-amino-4-methoxy-phenyl)-4-oxo-1H-quinoline-3-carboxamide]
25 to 100 | CC(C)(C)C(=O)Nc1ccc(NC(=O)c2c[nH]c3ccccc3c2=O)c(C(F)(F)F)c1 [Compound 556, N-[4-(2,2-dimethylpropanoylamino)-2-(trifluoromethyl)phenyl]-4-oxo-1H-quinoline-3-carboxamide]

The next lines start with the molecule.

SMILES | Emax [%]
O=C(Nc1ccc2c(c1)CCCC2)c1c[nH]c2ccccc2c1=O [Compound 375, 1,4-dihydro-N-(1,2,3,4-tetrahydronaphthalen-6-yl)-4-oxoquinoline-3-carboxamide] | 25 to 100
O=C(Nc1ccc2cc[nH]c2c1)c1c(C(F)(F)F)[nH]c2ccccc2c1=O [Compound 184, N-(1H-indol-6-yl)-4-oxo-2-(trifluoromethyl)-1H-quinoline-3-carboxamide] | < 25
COc1ccc(-c2ccccc2NC(=O)c2c[nH]c3ccccc3c2=O)cc1 [Compound 305, N-[2-(4-methoxyphenyl)phenyl]-4-oxo-1H-quinoline-3-carboxamide] | > 100
Cc1ccnc(NC(=O)c2c[nH]c3ccccc3c2=O)c1 [Compound 84, N-(4-methyl-2-pyridyl)-4-oxo-1H-quinoline-3-carboxamide] | < 25
O=C(Nc1cc(NS(=O)(=O)CCN2CCCCC2)cc(C(F)(F)F)c1)c1c[nH]c2ccccc2c1=O [Compound 318, 4-Oxo-N-[3-[2-(1-piperidyl)ethylsulfonylamino]-5-(trifluoromethyl)phenyl]-1H-quinoline-3-carboxamide] | 25 to 100
CC(C)(CO)c1ccc(NC(=O)c2c[nH]c3ccccc3c2=O)cc1 [Compound 5, N-[4-(2-hydroxy-1,1-dimethyl-ethyl)phenyl]-4-oxo-1H-quinoline-3-carboxamide] | 25 to 100
CC(C)(C)c1cc(C(C)(C)C)c(NC(=O)c2c[nH]c3ccccc3c2=O)c(O)c1O [Compound 220, N-(2,3-dihydroxy-4,6-ditert-butyl-phenyl)-4-oxo-1H-quinoline-3-carboxamide] | 25 to 100
COc1cccc(-c2ccccc2NC(=O)c2c[nH]c3ccccc3c2=O)c1F [Compound 363, N-[2-(2-fluoro-3-methoxy-phenyl)phenyl]-4-oxo-1H-quinoline-3-carboxamide] | > 100
O=C1CSc2ccc(NC(=O)c3c[nH]c4ccccc4c3=O)cc2N1 [Compound 262, 1,4-dihydro-N-(3,4-dihydro-3-oxo-2H-benzo[b][1,4]thiazin-6-yl)-4-oxoquinoline-3-carboxamide] | 25 to 100
O=C(Nc1cccc(OC(F)(F)F)c1)c1c[nH]c2ccccc2c1=O [Compound 62, 4-oxo-N-[3-(trifluoromethoxy)phenyl]-1H-quinoline-3-carboxamide] | 25 to 100
CC(C)(C)OC(=O)NCCc1c[nH]c2cc(NC(=O)c3c[nH]c4ccccc4c3=O)ccc12 [Compound 352, 2-[6-[(4-oxo-1H-quinolin-3-yl)carbonylamino]-1H-indol-3-yl]ethylaminoformic acid tert-butyl ester] | 25 to 100
Cc1cc(C)c(NC(=O)c2c[nH]c3ccccc3c2=O)c(C)c1 [Compound 50, 4-oxo-N-(2,4,6-trimethylphenyl)-1H-quinoline-3-carboxamide] | 25 to 100
CC(=O)Nc1ccc(C(C)(C)C)c(NC(=O)c2c[nH]c3ccccc3c2=O)c1 [Compound 316, N-(5-acetylamino-2-tert-butyl-phenyl)-4-oxo-1H-quinoline-3-carboxamide] | 25 to 100
CC(=O)N1CCCC(C)(C)c2ccc(NC(=O)c3c[nH]c4ccccc4c3=O)cc21 [Compound 109, N-(1-acetyl-2,3,4,5-tetrahydro-5,5-dimethyl-1H-benzo[b]azepin-8-yl)-1,4-dihydro-4-oxoquinoline-3-carboxamide] | 25 to 100
CCOc1ccccc1-c1ccccc1NC(=O)c1c[nH]c2ccccc2c1=O [Compound 344, N-[2-(2-ethoxyphenyl)phenyl]-4-oxo-1H-quinoline-3-carboxamide] | 25 to 100
CCc1ccc(NC)cc1NC(=O)c1c[nH]c2ccccc2c1=O [Compound 157, N-(2-ethyl-5-methylamino-phenyl)-4-oxo-1H-quinoline-3-carboxamide] | 25 to 100
CCc1cccc(NC(=O)c2c[nH]c3ccccc3c2=O)n1 [Compound 125, N-(6-ethyl-2-pyridyl)-4-oxo-1H-quinoline-3-carboxamide] | 25 to 100
CC(C)(C)c1ccc(NC(=O)c2c[nH]c3ccccc3c2=O)cc1S(N)(=O)=O [Compound 268, 4-oxo-N-(3-sulfamoyl-4-tert-butyl-phenyl)-1H-quinoline-3-carboxamide] | 25 to 100
O=C(Nc1nc2ccccc2[nH]1)c1c[nH]c2ccccc2c1=O [Compound 216, N-(3H-benzoimidazol-2-yl)-4-oxo-1H-quinoline-3-carboxamide] | < 25
CCOC(=O)Nc1ccc(C(C)C)c(NC(=O)c2c[nH]c3ccccc3c2=O)c1 [Compound 269, [4-isopropyl-3-[(4-oxo-1H-quinolin-3-yl)carbonylamino]phenyl]aminoformic acid ethyl ester] | 25 to 100
O=C(Nc1ccc2c(C3CCCC3)c[nH]c2c1)c1c[nH]c2ccccc2c1=O [Compound 186, N-(3-cyclopentyl-1H-indol-6-yl)-4-oxo-1H-quinoline-3-carboxamide] | 25 to 100
O=C(Nc1cnccn1)c1c[nH]c2ccccc2c1=O [Compound 219, 4-oxo-N-pyrazin-2-yl-1H-quinoline-3-carboxamide] | < 25
Cc1cccc(C)c1NC(=O)c1c[nH]c2ccccc2c1=O [Compound 315, N-(2,6-dimethylphenyl)-4-oxo-1H-quinoline-3-carboxamide] | 25 to 100
